These compounds were tested against T1, recombinant, N-terminally GST-tagged ATAD2 bromodomain amino acids 981-1108 (Homo sapiens, UniProt Q6PL18) (assay: TR-FRET assay: disruption of the interaction between ATAD2 and acetylated Histone H4 (Ac-H4) peptide). Details: inhibition of ATAD2/Ac-H4 complex formation; 10 nM ATAD2, 50 nM Ac-H4 peptide.
T1 construct: ATAD2 bromodomain amino acids 981-1108; made in house; host or cells: E. coli
T1 sequence (Q6PL18 981-1108): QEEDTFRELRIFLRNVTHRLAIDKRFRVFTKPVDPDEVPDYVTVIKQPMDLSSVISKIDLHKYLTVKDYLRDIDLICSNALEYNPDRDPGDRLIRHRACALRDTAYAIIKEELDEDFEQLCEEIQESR
Type: binding
Description: The ability of the compounds described in the present invention to disrupt the interaction between ATAD2 and acetylated Histone H4 (Ac-H4) was used as quantitative measure of their ATAD2-binding affinities.
To this end a TR-FRET assay which detects the binding of an Ac-H4-derived synthetic peptide (purchased from e.g. Biosyntan (Berlin, Germany)) of sequence HSGRGKGGGGKGLGK(Ac)GGAKRHRK-Biotin to recombinant, N-terminally GST-tagged ATAD2 bromodomain amino acids 981-1108. The protein was produced in-house via E. coli expression followed by GSH-Sepharose affinity- and Superdex S200-size exclusion chromatography purification.
Typically, 11 different concentrations of each compound (0.1 nM, 0.33 nM, 1.1 nM, 3.8 nM, 13 nM, 44 nM, 0.15 μM, 0.51 μM, 1.7 μM, 5.9 μM and 20 μM) were tested in duplicate within the same microtiter plate. To this end, 100-fold concentrated compound solutions (in DMSO) were previously prepared with a Precision Pippeting System (BioTek) by serial dilution (1:3.4) of 2 mM stocks in clear, low-volume 384-well microtiter source plates (Greiner Bio-One). Subsequently, 50 nl of compounds were transferred into black, low-volume test plates from the same supplier using a Hummingbird capillary based liquid handling instrument (Digilab). Tests were started by the addition of 2 μl of 2.5-fold concentrated ATAD2 solution (25 nM=10 nM final concentration in the 5 μl assay volume) in aqueous assay buffer [50 mM HEPES pH 7.5, 50 mM potassium fluoride (KF), 100 mM sodium chloride (NaCl), 0.25 mM CHAPS, 0.05% bovine serum albumine (BSA) and 1 mM dithiothreitol (DTT)] to the compounds in the test plate with a Multidrop dispenser (Thermo-Fisher). Test plates were then incubated 10′ at 22° C., in order to allow pre-equilibration of putative compound-ATAD2 complexes. Subsequently, 3 μl of a 1.67-fold concentrated solution containing Ac-H4 peptide (83.5 nM=50 nM final concentration) and TR-FRET detection reagents [16.7 nM Anti-GST-XL665 (Cisbio), =10 nM final concentration and 4.17 nM Lance EU W-1024 Streptavidin Europium Chelate (Perkin-Elmer)=2.5 nM final concentration were dispensed into the plates.
The mixture was further incubated in the dark for 1 hour at 22° C. Finally the inhibition of the formation of ATAD2/Ac-H4 complexes was assessed by measurement of the resonance energy transfer from the Streptavidin-Eu-Chelate to the anti-GST-XL665 antibody present in the reaction. To this end, the fluorescence emissions at 622 nm and 665 nm after excitation at 337 nm were measured in a TR-FRET reader, e.g. a Rubystar or Pherastar (both from BMG Lab Technologies) or a Viewlux (Perkin-Elmer) and the ratio of the emissions at 665 nm and at 622 nm was taken as indicator for the amount of ATAD2/Ac-H4 complexes in equilibrium.
The data were normalized using two sets of control wells (16 each). The first accounted for 100% ATAD2/Ac-H4 binding (0% inhibition), and contained all reaction components but DMSO instead of inhibitors. The second represented 0% ATAD2/Ac-H4 binding (100% inhibition), and included all assay components except ATAD2. IC50 values were calculated by fitting the normalized inhibition data to a 4-parameter logistic equation using either Screener software (Genedata) or a Bayer-proprietary analysis software.

| SMILES | IC50 |
| --- | --- |
| Cc1ccc([C@@H](C)NCc2ccc(-c3ccc(Cl)c(C(=O)N[C@H](Cc4ccc(C#N)cc4)c4ncn[nH]4)c3)o2)cc1 [Example 20, 2-chloro-N-[(1R)-2-(4-cyanophenyl)-1-(1H-1,2,4-triazol-5-yl)ethyl]-5-[5-({[(1R)-1-(4-methylphenyl)ethyl]amino}methyl)-2-furyl]benzamide] | 729 nM |
| Cc1ccc([C@@H](C)NCc2ccc(-c3ccc(Cl)c(C(=O)N[C@H](Cc4ccc(C#N)cc4)CN4CCN(C)CC4)c3)o2)cc1 [Example 21, 2-chloro-N-[(2R)-1-(4-cyanophenyl)-3-(4-methylpiperazin-1-yl)propan-2-yl]-5-[5-({[(1R)-1-(4-methylphenyl)ethyl]amino}methyl)-2-furyl]benzamide] | 580 nM |
| Cc1ccc([C@@H](C)NCc2ccc(-c3ccc(Cl)c(C(=O)N[C@H](Cc4ccc(C#N)cc4)CN4CCOCC4)c3)o2)cc1 [Example 22, 2-chloro-N-[(2R)-1-(4-cyanophenyl)-3-(morpholin-4-yl)propan-2-yl]-5-[5-({[(1R)-1-(4-methylphenyl)ethyl]amino}methyl)-2-furyl]benzamide] | 854 nM |
| Cc1ccc([C@@H](C)NCc2ccc(-c3ccc(Cl)c(C(=O)N[C@@H](CNCCO)Cc4ccc(C#N)cc4)c3)o2)cc1 [Example 23, 2-chloro-N-{(2R)-1-(4-cyanophenyl)-3-[(2-hydroxyethyl)amino]propan-2-yl}-5-[5-({[(1R)-1-(4-methylphenyl)ethyl]amino}methyl)-2-furyl]benzamide] | 561 nM |
| Cc1ccc([C@@H](C)NCc2ccc(-c3ccc(Cl)c(C(=O)N[C@H](Cc4ccc(C#N)cc4)CN(C)C)c3)o2)cc1 [Example 24, 2-chloro-N-[(2R)-1-(4-cyanophenyl)-3-(dimethylamino)propan-2-yl]-5-[5-({[(1R)-1-(4-methylphenyl)ethyl]amino}methyl)-2-furyl]benzamide] | 598 nM |
| Cc1ccc([C@@H](C)NCc2ccc(-c3ccc(Cl)c(C(=O)N[C@@H](CCN4CCN(C)CC4)Cc4ccc(C#N)cc4)c3)o2)cc1 [Example 25, 2-chloro-N-[(2R)-1-(4-cyanophenyl)-4-(4-methylpiperazin-1-yl)butan-2-yl]-5-[5-({[(1R)-1-(4-methylphenyl)ethyl]amino}methyl)-2-furyl]benzamide] | 352 nM |
| Cc1ccc([C@@H](C)NCc2ccc(-c3ccc(Cl)c(C(=O)N[C@@H](CCNC(C)C)Cc4ccc(C#N)cc4)c3)o2)cc1 [Example 26, 2-chloro-N-[(2R)-1-(4-cyanophenyl)-4-(isopropylamino)butan-2-yl]-5-[5-({[(1R)-1-(4-methylphenyl)ethyl]amino}methyl)-2-furyl]benzamide] | 331 nM |
| Cc1ccc([C@@H](C)NCc2ccc(-c3ccc(Cl)c(C(=O)N[C@@H](CCN4CCN[C@H](C)C4)Cc4ccc(C#N)cc4)c3)o2)cc1 [Example 27, 2-chloro-N-{(2R)-1-(4-cyanophenyl)-4-[(3R)-3-methylpiperazin-1-yl]butan-2-yl}-5-[5-({[(1R)-1-(4-methylphenyl)ethyl]amino}methyl)-2-furyl]benzamide] | 116 nM |
| Cc1ccc([C@@H](C)NCc2ccc(-c3ccc(Cl)c(C(=O)N[C@@H](CCN4CCN[C@@H](C)C4)Cc4ccc(C#N)cc4)c3)o2)cc1 [Example 28, 2-chloro-N-{(2R)-1-(4-cyanophenyl)-4-[(3S)-3-methylpiperazin-1-yl]butan-2-yl}-5-[5-({[(1R)-1-(4-methylphenyl)ethyl]amino}methyl)-2-furyl]benzamide] | 148 nM |
| Cc1ccc([C@@H](C)NCc2ccc(-c3ccc(Cl)c(C(=O)N[C@@H](CCN4CCOCC4)Cc4ccc(C#N)cc4)c3)o2)cc1 [Example 29, 2-chloro-N-[(2R)-1-(4-cyanophenyl)-4-(morpholin-4-yl)butan-2-yl]-5-[5-({[(1R)-1-(4-methylphenyl)ethyl]amino}methyl)-2-furyl]benzamide] | 675 nM |
| Cc1ccc([C@@H](C)NCc2ccc(-c3ccc(Cl)c(C(=O)N[C@H](Cc4ccc(C#N)cc4)C(=O)NC4CCN(C)CC4)c3)o2)cc1 [Example 30, Nα-{2-chloro-5-[5-({[(1R)-1-(4-methylphenyl)ethyl]amino}methyl)-2-furyl]benzoyl}-4-cyano-N-(1-methylpiperidin-4-yl)-D-phenylalaninamide] | 253 nM |
| Cc1ccc([C@@H](C)NCc2ccc(-c3ccc(Cl)c(C(=O)N[C@@H](CCN4CCN(C)C[C@@H]4C)Cc4ccc(C#N)cc4)c3)o2)cc1 [Example 31, 2-chloro-N-{(2R)-1-(4-cyanophenyl)-4-[(2S)-2,4-dimethylpiperazin-1-yl]butan-2-yl}-5-[5-({[(1R)-1-(4-methylphenyl)ethyl]amino}methyl)-2-furyl]benzamide] | 297 nM |
| Cc1ccc([C@@H](C)NCc2ccc(-c3ccc(Cl)c(C(=O)N[C@@H](CCN4CCN(C)C[C@H]4C)Cc4ccc(C#N)cc4)c3)o2)cc1 [Example 32, 2-chloro-N-{(2R)-1-(4-cyanophenyl)-4-[(2R)-2,4-dimethylpiperazin-1-yl]butan-2-yl}-5-[5-({[(1R)-1-(4-methylphenyl)ethyl]amino}methyl)-2-furyl]benzamide] | 130 nM |
| Cc1ccc([C@@H](C)NCc2ccc(-c3ccc(Cl)c(C(=O)N[C@@H](CCN[C@@H]4CCN(C)C4)Cc4ccc(C#N)cc4)c3)o2)cc1 [Example 34, 2-chloro-N-[(2R)-1-(4-cyanophenyl)-4-{[(3R)-1-methylpyrrolidin-3-yl]amino}butan-2-yl]-5-[5-({[(1R)-1-(4-methylphenyl)ethyl]amino}methyl)-2-furyl]benzamide] | 423 nM |
| Cc1ccc([C@@H](C)NCc2ccc(-c3ccc(Cl)c(C(=O)N[C@@H](CCN[C@H]4CCN(C)C4)Cc4ccc(C#N)cc4)c3)o2)cc1 [Example 35, 2-chloro-N-[(2R)-1-(4-cyanophenyl)-4-{[(3S)-1-methylpyrrolidin-3-yl]amino}butan-2-yl]-5-[5-({[(1R)-1-(4-methylphenyl)ethyl]amino}methyl)-2-furyl]benzamide] | 466 nM |
| Cc1ccc([C@@H](C)NCc2ccc(-c3ccc(Cl)c(C(=O)N[C@@H](CO)Cc4ccc(C#N)c(C)c4)c3)o2)cc1 [Example 37, 2-chloro-N-[(2R)-1-(4-cyano-3-methylphenyl)-3-hydroxypropan-2-yl]-5-[5-({[(1R)-1-(4-methylphenyl)ethyl]amino}methyl)-2-furyl]benzamide] | 443 nM |
| Cc1ccc([C@@H](C)NCc2ccc(-c3ccc(Cl)c(C(=O)N[C@@H](CO)Cc4cc(F)c(C#N)cc4C)c3)o2)cc1 [Example 38, 2-chloro-N-[(2R)-1-(4-cyano-5-fluoro-2-methylphenyl)-3-hydroxypropan-2-yl]-5-[5-({[(1R)-1-(4-methylphenyl)ethyl]amino}methyl)-2-furyl]benzamide] | 365 nM |
| COc1cc(C#N)ccc1C[C@H](CO)NC(=O)c1cc(-c2ccc(CN[C@H](C)c3ccc(C)cc3)o2)ccc1Cl [Example 39, 2-chloro-N-[(2R)-1-(4-cyano-2-methoxyphenyl)-3-hydroxypropan-2-yl]-5-[5-({[(1R)-1-(4-methylphenyl)ethyl]amino}methyl)-2-furyl]benzamide] | 585 nM |
| Cc1ccc([C@@H](C)NCc2ccc(-c3ccc(Cl)c(C(=O)N[C@@H](CO)Cc4ccc(C#N)c(N)c4)c3)o2)cc1 [Example 40, N-[(2R)-1-(3-amino-4-cyanophenyl)-3-hydroxypropan-2-yl]-2-chloro-5-[5-({[(1R)-1-(4-methylphenyl)ethyl]amino}methyl)-2-furyl]benzamide] | 781 nM |

Reference: patent publication US10654818B2, “Furane derivatives as inhibitors of ATAD2” (BAYER PHARMA AKTIENGESELLSCHAFT, priority 2015, dated 2020)
